Experimental data reported in ChEMBL document CHEMBL3046801, “Synthesis of 2-R1-2-(4-(2-fluoroethoxy)benzamido)acetate as potential PET imaging agents” (Med Chem Res, 2012).

Key:
Liver [1] = test: Biodistribution in tumor bearing Mus musculus KM (mouse) liver at 60 min by microPET imaging analysis; assay type: ADME, organism-based; settings: in vivo, 1 h
Nucleic Acid [2] = test: Ratio of drug uptake in tumor to muscle in Mus musculus KM (mouse) at 120 min; assay type: ADME; settings: in vivo, 2 h
Brain [3] = test: Biodistribution in tumor bearing Mus musculus KM (mouse) brain at 5 min by microPET imaging analysis; assay type: ADME, organism-based; settings: in vivo
Kidney [4] = test: Biodistribution in tumor bearing Mus musculus KM (mouse) kidney at 5 min by microPET imaging analysis; assay type: ADME, organism-based; settings: in vivo
Kidney [5] = test: Biodistribution in tumor bearing Mus musculus KM (mouse) kidney by microPET imaging analysis; assay type: ADME, organism-based; settings: in vivo, TDE = time-dependent effect
Muscle tissue [6] = test: Biodistribution in tumor bearing Mus musculus KM (mouse) muscle at 30 min by microPET imaging analysis; assay type: ADME, organism-based; settings: in vivo, 0.5 h
Spleen [7] = test: Biodistribution in tumor bearing Mus musculus KM (mouse) spleen at 60 min by microPET imaging analysis; assay type: ADME, organism-based; settings: in vivo, 1 h
Kidney [8] = test: Biodistribution in tumor bearing Mus musculus KM (mouse) kidney at 60 min by microPET imaging analysis; assay type: ADME, organism-based; settings: in vivo, 1 h
Lung [9] = test: Biodistribution in tumor bearing Mus musculus KM (mouse) Lung at 15 min by microPET imaging analysis; assay type: ADME, organism-based; settings: in vivo, 0.25 h
Liver [10] = test: Biodistribution in tumor bearing Mus musculus KM (mouse) liver at 120 min by microPET imaging analysis; assay type: ADME, organism-based; settings: in vivo, 2 h
Liver [11] = test: Biodistribution in tumor bearing Mus musculus KM (mouse) liver at 30 min by microPET imaging analysis; assay type: ADME, organism-based; settings: in vivo, 0.5 h
Heart [12] = test: Biodistribution in tumor bearing Mus musculus KM (mouse) heart at 120 min by microPET imaging analysis; assay type: ADME, organism-based; settings: in vivo, 2 h
Blood [13] = test: Biodistribution in tumor bearing Mus musculus KM (mouse) blood at 60 min by microPET imaging analysis; assay type: ADME, organism-based; settings: in vivo, 1 h
Muscle tissue [14] = test: Biodistribution in tumor bearing Mus musculus KM (mouse) muscle at 60 min by microPET imaging analysis; assay type: ADME, organism-based; settings: in vivo, 1 h
Blood [15] = test: Biodistribution in tumor bearing Mus musculus KM (mouse) blood at 30 min by microPET imaging analysis; assay type: ADME, organism-based; settings: in vivo, 0.5 h
Heart [16] = test: Biodistribution in tumor bearing Mus musculus KM (mouse) heart at 15 min by microPET imaging analysis; assay type: ADME, organism-based; settings: in vivo, 0.25 h
Brain [17] = test: Biodistribution in tumor bearing Mus musculus KM (mouse) brain by microPET imaging analysis; assay type: ADME, organism-based; settings: in vivo, TDE = time-dependent effect
Heart [18] = test: Biodistribution in tumor bearing Mus musculus KM (mouse) heart at 5 min by microPET imaging analysis; assay type: ADME, organism-based; settings: in vivo
Blood [19] = test: Biodistribution in tumor bearing Mus musculus KM (mouse) blood at 120 min by microPET imaging analysis; assay type: ADME, organism-based; settings: in vivo, 2 h
Kidney [20] = test: Biodistribution in tumor bearing Mus musculus KM (mouse) kidney at 120 min by microPET imaging analysis; assay type: ADME, organism-based; settings: in vivo, 2 h
Muscle tissue [21] = test: Biodistribution in tumor bearing Mus musculus KM (mouse) muscle by microPET imaging analysis; assay type: ADME, organism-based; settings: in vivo, TDE = time-dependent effect
Tumour [22] = test: Biodistribution in Mus musculus KM (mouse) tumor at 30 min by microPET imaging analysis; assay type: ADME, organism-based, Neoplasm; settings: in vivo, 0.5 h
Heart [23] = test: Biodistribution in tumor bearing Mus musculus KM (mouse) heart at 30 min by microPET imaging analysis; assay type: ADME, organism-based; settings: in vivo, 0.5 h
Nucleic Acid [24] = test: Ratio of drug uptake in tumor to muscle in Mus musculus KM (mouse) at 15 min; assay type: ADME, nucleic-acid assay; settings: in vivo, 0.25 h
Liver [25] = test: Biodistribution in tumor bearing Mus musculus KM (mouse) liver at 15 min by microPET imaging analysis; assay type: ADME, organism-based; settings: in vivo, 0.25 h
Tumour [26] = test: Biodistribution in Mus musculus KM (mouse) tumor at 120 min by microPET imaging analysis; assay type: ADME, organism-based, Neoplasm; settings: in vivo, 2 h
Spleen [27] = test: Biodistribution in tumor bearing Mus musculus KM (mouse) spleen by microPET imaging analysis; assay type: ADME, organism-based; settings: in vivo, TDE = time-dependent effect
Spleen [28] = test: Biodistribution in tumor bearing Mus musculus KM (mouse) spleen at 30 min by microPET imaging analysis; assay type: ADME, organism-based; settings: in vivo, 0.5 h
Tumour [29] = test: Biodistribution in Mus musculus KM (mouse) tumor at 5 min by microPET imaging analysis; assay type: ADME, organism-based, Neoplasm; settings: in vivo
Kidney [30] = test: Biodistribution in tumor bearing Mus musculus KM (mouse) kidney at 30 min by microPET imaging analysis; assay type: ADME, organism-based; settings: in vivo, 0.5 h
Spleen [31] = test: Biodistribution in tumor bearing Mus musculus KM (mouse) spleen at 15 min by microPET imaging analysis; assay type: ADME, organism-based; settings: in vivo, 0.25 h
Tumour [32] = test: Biodistribution in Mus musculus KM (mouse) tumor at 60 min by microPET imaging analysis; assay type: ADME, organism-based, Neoplasm; settings: in vivo, 1 h
Brain [33] = test: Biodistribution in tumor bearing Mus musculus KM (mouse) brain at 60 min by microPET imaging analysis; assay type: ADME, organism-based; settings: in vivo, 1 h
Brain [34] = test: Biodistribution in tumor bearing Mus musculus KM (mouse) brain at 30 min by microPET imaging analysis; assay type: ADME, organism-based; settings: in vivo, 0.5 h
Nucleic Acid [35] = test: Ratio of drug uptake in tumor to muscle in Mus musculus KM (mouse) at 60 min; assay type: ADME, nucleic-acid assay; settings: in vivo, 1 h
Muscle tissue [36] = test: Biodistribution in tumor bearing Mus musculus KM (mouse) muscle at 5 min by microPET imaging analysis; assay type: ADME, organism-based; settings: in vivo
Heart [37] = test: Biodistribution in tumor bearing Mus musculus KM (mouse) heart by microPET imaging analysis; assay type: ADME, organism-based; settings: in vivo, TDE = time-dependent effect
Liver [38] = test: Biodistribution in tumor bearing Mus musculus KM (mouse) liver at 5 min by microPET imaging analysis; assay type: ADME, organism-based; settings: in vivo
Brain [39] = test: Biodistribution in tumor bearing Mus musculus KM (mouse) brain at 15 min by microPET imaging analysis; assay type: ADME, organism-based; settings: in vivo, 0.25 h
Blood [40] = test: Biodistribution in tumor bearing Mus musculus KM (mouse) blood at 5 min by microPET imaging analysis; assay type: ADME, organism-based; settings: in vivo
Kidney [41] = test: Biodistribution in tumor bearing Mus musculus KM (mouse) kidney at 15 min by microPET imaging analysis; assay type: ADME, organism-based; settings: in vivo, 0.25 h
Muscle tissue [42] = test: Biodistribution in tumor bearing Mus musculus KM (mouse) muscle at 120 min by microPET imaging analysis; assay type: ADME, organism-based; settings: in vivo, 2 h
Blood [43] = test: Biodistribution in tumor bearing Mus musculus KM (mouse) blood at 15 min by microPET imaging analysis; assay type: ADME, organism-based; settings: in vivo, 0.25 h
Spleen [44] = test: Biodistribution in tumor bearing Mus musculus KM (mouse) spleen at 5 min by microPET imaging analysis; assay type: ADME, organism-based; settings: in vivo
Tumour [45] = test: Biodistribution in tumor of Mus musculus KM (mouse) by microPET imaging analysis; assay type: ADME, organism-based, Neoplasm; settings: in vivo, TDE = time-dependent effect
Spleen [46] = test: Biodistribution in tumor bearing Mus musculus KM (mouse) spleen at 120 min by microPET imaging analysis; assay type: ADME, organism-based; settings: in vivo, 2 h
Tumour [47] = test: Biodistribution in Mus musculus KM (mouse) tumor at 15 min by microPET imaging analysis; assay type: ADME, organism-based, Neoplasm; settings: in vivo, 0.25 h
Brain [48] = test: Biodistribution in tumor bearing Mus musculus KM (mouse) brain at 120 min by microPET imaging analysis; assay type: ADME, organism-based; settings: in vivo, 2 h
Lung [49] = test: Biodistribution in tumor bearing Mus musculus KM (mouse) Lung at 30 min by microPET imaging analysis; assay type: ADME, organism-based; settings: in vivo, 0.5 h
Lung [50] = test: Biodistribution in tumor bearing Mus musculus KM (mouse) Lung at 120 min by microPET imaging analysis; assay type: ADME, organism-based; settings: in vivo, 2 h
Liver [51] = test: Biodistribution in tumor bearing Mus musculus KM (mouse) liver by microPET imaging analysis; assay type: ADME, organism-based; settings: in vivo, TDE = time-dependent effect
[52] = Octanol-PBS partition coefficient of the compound at pH 7.4 by gamma counter; assay type: physicochemical; settings: read-out: log KOW
Lung [53] = test: Biodistribution in tumor bearing Mus musculus KM (mouse) lung by microPET imaging analysis; assay type: ADME, organism-based; settings: in vivo, TDE = time-dependent effect
Heart [54] = test: Biodistribution in tumor bearing Mus musculus KM (mouse) heart at 60 min by microPET imaging analysis; assay type: ADME, organism-based; settings: in vivo, 1 h
Blood [55] = test: Biodistribution in tumor bearing Mus musculus KM (mouse) blood by microPET imaging analysis; assay type: ADME, organism-based; settings: in vivo, TDE = time-dependent effect
Lung [56] = test: Biodistribution in tumor bearing Mus musculus KM (mouse) Lung at 60 min by microPET imaging analysis; assay type: ADME, organism-based; settings: in vivo, 1 h
Muscle tissue [57] = test: Biodistribution in tumor bearing Mus musculus KM (mouse) muscle at 15 min by microPET imaging analysis; assay type: ADME, organism-based; settings: in vivo, 0.25 h
Nucleic Acid [58] = test: Ratio of drug uptake in tumor to muscle in Mus musculus KM (mouse) at 30 min; assay type: ADME, nucleic-acid assay; settings: in vivo, 0.5 h
Lung [59] = test: Biodistribution in tumor bearing Mus musculus KM (mouse) Lung at 5 min by microPET imaging analysis; assay type: ADME, organism-based; settings: in vivo

## O=C(O)CNC(=O)c1ccc(OCC[18F])cc1 [[18F]FEBA hydrolytic acid]
Liver [1]
  Drug uptake: 0.25 % ID/g
Nucleic Acid [2]
  Ratio: 2.57
Brain [3]
  Drug uptake: 0.34 % ID/g
Kidney [4]
  Drug uptake: 17.9 % ID/g
Kidney [5]
  Drug uptake: tde
Muscle tissue [6]
  Drug uptake: 0.47 % ID/g
Spleen [7]
  Drug uptake: 0.21 % ID/g
Kidney [8]
  Drug uptake: 0.46 % ID/g
Lung [9]
  Drug uptake: 1.11 % ID/g
Liver [10]
  Drug uptake: 0.37 % ID/g
Liver [11]
  Drug uptake: 0.38 % ID/g
Heart [12]
  Drug uptake: 0.25 % ID/g
Blood [13]
  Drug uptake: 0.18 % ID/g
Muscle tissue [14]
  Drug uptake: 0.15 % ID/g
Blood [15]
  Drug uptake: 0.39 % ID/g
Heart [16]
  Drug uptake: 0.75 % ID/g
Brain [17]
  Drug uptake: tde
Heart [18]
  Drug uptake: 2.24 % ID/g
Blood [19]
  Drug uptake: 0.3 % ID/g
Kidney [20]
  Drug uptake: 0.32 % ID/g
Muscle tissue [21]
  Drug uptake: tde
Tumour [22]
  Drug uptake: 0.47 % ID/g
Heart [23]
  Drug uptake: 0.28 % ID/g
Nucleic Acid [24]
  Ratio: 1.09
Liver [25]
  Drug uptake: 1.08 % ID/g
Tumour [26]
  Drug uptake: 0.36 % ID/g
Spleen [27]
  Drug uptake: tde
Spleen [28]
  Drug uptake: 0.22 % ID/g
Tumour [29]
  Drug uptake: 1.72 % ID/g
Kidney [30]
  Drug uptake: 1.17 % ID/g
Spleen [31]
  Drug uptake: 0.48 % ID/g
Tumour [32]
  Drug uptake: 0.29 % ID/g
Brain [33]
  Drug uptake: 0.06 % ID/g
Brain [34]
  Drug uptake: 0.12 % ID/g
Nucleic Acid [35]
  Ratio: 1.93
Muscle tissue [36]
  Drug uptake: 1.35 % ID/g
Heart [37]
  Drug uptake: tde
Liver [38]
  Drug uptake: 2.75 % ID/g
Brain [39]
  Drug uptake: 0.23 % ID/g
Blood [40]
  Drug uptake: 4.57 % ID/g
Kidney [41]
  Drug uptake: 5.15 % ID/g
Muscle tissue [42]
  Drug uptake: 0.14 % ID/g
Blood [43]
  Drug uptake: 1.45 % ID/g
Spleen [44]
  Drug uptake: 1.12 % ID/g
Tumour [45]
  Drug uptake: tde
Spleen [46]
  Drug uptake: 0.2 % ID/g
Tumour [47]
  Drug uptake: 0.89 % ID/g
Brain [48]
  Drug uptake: 0.13 % ID/g
Lung [49]
  Drug uptake: 0.37 % ID/g
Lung [50]
  Drug uptake: 0.2 % ID/g
Liver [51]
  Drug uptake: tde
[52]
  logD: -1.55
Lung [53]
  Drug uptake: tde
Heart [54]
  Drug uptake: 0.22 % ID/g
Blood [55]
  Drug uptake: tde
Lung [56]
  Drug uptake: 0.18 % ID/g
Muscle tissue [57]
  Drug uptake: 0.82 % ID/g
Nucleic Acid [58]
  Ratio: 0.99
Lung [59]
  Drug uptake: 3.37 % ID/g
